Measurements from patent publication US6777427B2, “Tetrahydroquinoline compounds” (priority 2000, dated 2004).

Assays:
[1] = target: T1, Rat Androgen Receptors (Rat AR) (Rattus norvegicus, UniProt P15207); assay: Test for competitive binding to rat androgen receptors (3H-testosterone displacement, prostate AR fraction); conditions: RBA=100×(IC50 of hydroxyflutamide)/(IC50 of the compound)
T1 construct: from tissue; host or cells: prostate of orchiectomized 11-week-old male SD rats (100,000 x g supernatant of the homogenate)
T1 sequence (P15207 1-902): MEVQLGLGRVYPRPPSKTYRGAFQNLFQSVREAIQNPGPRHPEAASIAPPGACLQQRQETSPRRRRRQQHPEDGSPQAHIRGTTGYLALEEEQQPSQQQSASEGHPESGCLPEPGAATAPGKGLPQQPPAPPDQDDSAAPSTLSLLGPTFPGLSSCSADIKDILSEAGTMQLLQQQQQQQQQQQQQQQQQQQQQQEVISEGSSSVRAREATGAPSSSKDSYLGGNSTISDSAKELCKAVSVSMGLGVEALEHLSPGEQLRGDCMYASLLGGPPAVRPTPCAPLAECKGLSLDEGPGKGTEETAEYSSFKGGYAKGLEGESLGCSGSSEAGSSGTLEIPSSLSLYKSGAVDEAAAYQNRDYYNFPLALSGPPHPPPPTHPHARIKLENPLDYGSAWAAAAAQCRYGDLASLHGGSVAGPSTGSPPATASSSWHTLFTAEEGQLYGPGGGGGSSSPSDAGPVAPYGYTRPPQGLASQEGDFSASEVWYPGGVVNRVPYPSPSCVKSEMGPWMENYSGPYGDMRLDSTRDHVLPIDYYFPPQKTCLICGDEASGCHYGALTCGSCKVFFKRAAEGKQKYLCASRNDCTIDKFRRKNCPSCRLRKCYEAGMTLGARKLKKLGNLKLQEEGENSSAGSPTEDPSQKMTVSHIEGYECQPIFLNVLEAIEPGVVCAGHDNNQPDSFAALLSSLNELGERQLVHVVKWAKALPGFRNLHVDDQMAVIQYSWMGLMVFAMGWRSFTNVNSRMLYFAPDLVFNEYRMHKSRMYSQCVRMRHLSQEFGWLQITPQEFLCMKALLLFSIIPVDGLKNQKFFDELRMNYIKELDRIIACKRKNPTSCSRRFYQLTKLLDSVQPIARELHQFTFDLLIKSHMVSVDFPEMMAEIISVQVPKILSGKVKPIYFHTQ
Description: Test for Competitive Binding to Rat Androgen Receptors (Rat AR)
Preparation of rat AR fraction: Prostates were harvested into ice-cooled ET buffer (10 mM Tris, 1 mM EDTA, 5 mM DTT, 10 mM sodium molybdate, pH 7.4) 3 days after orchiectomy in 11-week-old male SD rats. The prostate was finely cut, and ET buffer was added, whereafter the mixture was homogenized using a homogenizer. The homogenate was ultracentrifuged (100,000×g, 60 min, 4° C.), and the supernatant was used as a rat AR fraction (hereinafter referred to as ARF).
Binding test: ^3H-testosterone (hereinafter referred to as ^3H-T) was diluted with ET buffer. Dihydrotestosterone (DHT) was prepared so as to have a concentration (final concentration 1 μM) 400 times the maximum concentration of ^3H-T (2.5 nM). The ^3H-T solution was added to a 1.5 ml tube containing DHT, no DHT, or the test compound with a varying concentration. Further, 200 μg ARF was added to adjust the final volume to 100 μl. The mixture was incubated for 2 hours at 4° C., and then 300 μl of a 0.05% dextran T70-1.0% activated carbon solution was added. The mixture was further incubated for 15 minutes in ice to remove the free ^3H-T. After centrifugation (4° C., 2,500 rpm, 5 min), 275 μl of the supernatant was harvested into a liquid scintillation vial, and 2 ml of clear-sol was added. The mixture was stirred, allowed to stand, and measured for ^3H radioactivity with a liquid scintillation counter. […]
a: Radioactivity of the sample incorporating the compound of the present invention (^3H-T+compound) b: Radioactivity of the sample free from the compound of the present invention (only ^3H-T: amount of total binding) c: Radioactivity of the sample incorporating DHT (^3H-T+DHT: amount of nonspecific binding) The relative binding inhibition rate (RBA: Relative Binding Affinity) was obtained from the following equation (Endocrinology 138, 863-870, 1997): […]

[2] = tested on: Orchiectomized (ORX) Rats; assay: Action of increasing prostate weight and bone mass in orchiectomized (ORX) rats, 4 weeks; assay type: in vivo, rat; conditions: for Bone mineral density / Prostate weight: ORX SD rats, s.c. once daily, 5 days weekly, 4 weeks, DHT 10 mg/kg, Ex. 23 30 mg/kg, Mean ± SD; for Bone mineral density: right femur
Description: Orchiectomy was performed in 12-week-old male SD rats. […] In an ORX control group (Vehicle), dimethyl sulfoxide diluted with olive oil was used for the test. […] On the next day after final administration, the wet weight of the ventral prostate was measured to evaluate the AR agonistic effect of the compound of the present invention. On the next day following final administration, moreover, the right femur was removed, and fixed overnight in a 10% neutrally buffered formalin solution.

[3] = tested on: Ovariectomized (OVX) Rats; assay: Action of increasing bone mass in ovariectomized (OVX) rats, 8 weeks; assay type: in vivo, rat; conditions: for Bone mineral density: OVX female SD rats, right femur, s.c. once daily, 5 days weekly, 8 weeks from 4 weeks postoperatively, DHT 10 mg/kg, Ex. 23 30 mg/kg, Mean ± SD
Description: Action of Increasing Bone Mass in Ovariectomized (OVX) Rats
Ovariectomy was performed in 12-week-old female SD rats. […] In an OVX control group (Vehicle), dimethyl sulfoxide diluted with olive oil was used for the test. […] On the next day after final administration, the right femur was removed, and fixed overnight in a 10% neutrally buffered formalin solution.

[4] = tested on: Orchiectomized (ORX) Rats; assay: Action of increasing prostate weight in orchiectomized (ORX) rats, 8 days; assay type: in vivo, rat; conditions: for Weight of prostate: ORX SD rats, s.c. once daily for 8 days, DHT 10 mg/kg, Ex. 23 30 mg/kg, ventral prostate wet weight, Mean ± SD
Description: Testes were removed from 8-week-old male SD rats. […] In an ORX control group (Vehicle), dimethyl sulfoxide diluted with olive oil was used for the test. […] On the next day after final administration, the wet weight of the ventral prostate was measured to evaluate the AR agonistic effect of the compound of the present invention.

male rats = assay: AR antagonistic effect: inhibition of testosterone propionate-induced prostate weight increase; assay type: in vivo, rat; conditions: suggested by a Test Example; no data given
Description: Testes were removed from male rats. From 5 days postoperatively, testosterone propionate and the compound of the present invention were simultaneously administered once daily for one consecutive week by the subcutaneous route. On the next day after final administration, the wet weight of the ventral prostate was measured to evaluate the AR antagonistic effect of the compound of the present invention based on its inhibitory action on testosterone propionate-induced prostate weight increase.

CC(C)(CO)C1CC(NCc2ccccc2)c2cc([N+](=O)[O-])ccc2N1 (centres unmarked) [Example 30, 2-(4-Benzylamino-6-nitro-1,2,3,4-tetrahydroquinolin-2-yl)-2-methylpropan-1-ol]
RBA (Relative Binding Affinity) [1]: 370

CN(C)C1CC(C(C)(C)COC(=O)c2ccc(F)cc2)Nc2ccc([N+](=O)[O-])cc21 (centres unmarked) [Example 11, 4-Fluorobenzoic acid 2-(4-dimethylamino-6-nitro-1,2,3,4-tetrahydroquinolin-2-yl)-2-methyl-propyl ester]
RBA (Relative Binding Affinity) [1]: 98

C[C@]12CCC(=O)C[C@@H]1CC[C@@H]1[C@@H]2CC[C@]2(C)[C@@H](O)CC[C@@H]12 [DHT, dihydrotestosterone, reference compound]
Bone mineral density [2]: 130 ± 7 mg/cm^2
Prostate weight [2]: 150 ± 14 mg/body weight 100 g
Bone mineral density [3]: 120.8 ± 4.4 mg/cm^2
Weight of prostate [4]: 68 ± 16 mg/body weight (100 g)

CC(=O)OCC(C)(C)C1CC(N(C)C)c2cc([N+](=O)[O-])ccc2N1 (centres unmarked) [Example 9, Acetic acid 2-(4-dimethylamino-6-nitro-1,2,3,4-tetrahydroquinolin-2-yl)-2-methyl-propyl ester]
RBA (Relative Binding Affinity) [1]: 79

CC(C)(O)C(=O)Nc1ccc([N+](=O)[O-])c(C(F)(F)F)c1 [Hydroxyflutamide, reference compound]
RBA (Relative Binding Affinity) [1]: 100

CN(C)C1CC(C(C)(C)CO)Nc2ccc([N+](=O)[O-])cc21 (centres unmarked) [Example 23, 2-(4-dimethylamino-6-nitro-1,2,3,4-tetrahydroquinolin-2-yl)-2-methylpropan-1-ol]
Bone mineral density [2]: 134 ± 6 mg/cm^2
Prostate weight [2]: 78 ± 10 mg/body weight 100 g
Effect on atrophied prostate (in words) ([2]; ORX rats, administered for 4 weeks, 30 mg/kg s.c.): restored the atrophied prostate up to the level of the normal control
Effect on bone mineral density (in words) ([2]; ORX rats, administered for 4 weeks, 30 mg/kg s.c., vs control group): significantly increased the decreased bone mineral density
Bone mineral density [3]: 120.9 ± 3.9 mg/cm^2
Effect on bone mineral density (in words) ([3]; OVX rats, administered for 8 weeks, 30 mg/kg s.c.): significantly increased the bone mineral density
Weight of prostate [4]: 52 ± 12 mg/body weight (100 g)
Effect on prostate weight (in words) ([4]; ORX rats, consecutively administered for 8 days, 30 mg/kg s.c.): significantly increased prostate weights in comparison with the ORX control

CCCN(CCC)C1CC(C(C)(C)CO)Nc2ccc([N+](=O)[O-])cc21 (centres unmarked) [Example 33, 2-(4-Di-n-propylamino-6-nitro-1,2,3,4-tetrahydroquinolin-2-yl)-2-methylpropan-1-ol]
AR antagonistic effect (in words) (male rats): AR antagonist
